Assay results: patent US20260207573A1, “EFFECT OF RIVOCERANIB ON CYTOCHROME P450 ENZYME SUBSTRATES” (ELEVAR THERAPEUTICS, INC., priority 2022, published 2026)
“Also recorded” adds a separate entry of the source.

Legend:
[1] = molecular target: T1, CYP2C9 (Homo sapiens, UniProt P11712); assay: Example 2 phase 1 drug-drug interaction study, rivoceranib 700 mg QD + 5+1 cocktail: S- and R-warfarin probe; parameters: AUC(0-∞), Mean (CV %), 5 + 1 cocktail alone / AUC(0-∞), Geometric LSM, 5 + 1 cocktail alone / AUC(0-∞), Mean (CV %), Rivoceranib plus 5 + 1 cocktail / AUC(0-∞), Geometric LSM, Rivoceranib plus 5 + 1 cocktail / AUC(0-t), Mean (CV %), 5 + 1 cocktail alone / AUC(0-t), Geometric LSM, 5 + 1 cocktail alone / AUC(0-t), Mean (CV %), Rivoceranib plus 5 + 1 cocktail / AUC(0-t), Geometric LSM, Rivoceranib plus 5 + 1 cocktail: unit not given beside the values; details: for AUC(0-t), Geometric LSM, Rivoceranib plus 5 + 1 cocktail / AUC(0-t), Mean (CV %), Rivoceranib plus 5 + 1 cocktail / AUC(0-∞), Geometric LSM, Rivoceranib plus 5 + 1 cocktail / AUC(0-∞), Mean (CV %), Rivoceranib plus 5 + 1 cocktail / Cmax, Geometric LSM, Rivoceranib plus 5 + 1 cocktail / Cmax, Mean (CV %), Rivoceranib plus 5 + 1 cocktail / AUC(0-t), Geometric LSM, 5 + 1 cocktail alone / AUC(0-t), Mean (CV %), 5 + 1 cocktail alone / AUC(0-∞), Geometric LSM, 5 + 1 cocktail alone / AUC(0-∞), Mean (CV %), 5 + 1 cocktail alone / Cmax, Geometric LSM, 5 + 1 cocktail alone / Cmax, Mean (CV %), 5 + 1 cocktail alone: healthy volunteers; for AUC(0-t), Geometric LSM, Rivoceranib plus 5 + 1 cocktail / AUC(0-t), Mean (CV %), Rivoceranib plus 5 + 1 cocktail / AUC(0-∞), Geometric LSM, Rivoceranib plus 5 + 1 cocktail / AUC(0-∞), Mean (CV %), Rivoceranib plus 5 + 1 cocktail / Cmax, Geometric LSM, Rivoceranib plus 5 + 1 cocktail / Cmax, Mean (CV %), Rivoceranib plus 5 + 1 cocktail: 5+1 cocktail day 11 + rivoceranib 700 mg QD days 6-15; for AUC(0-t), Geometric LSM, 5 + 1 cocktail alone / AUC(0-t), Mean (CV %), 5 + 1 cocktail alone / AUC(0-∞), Geometric LSM, 5 + 1 cocktail alone / AUC(0-∞), Mean (CV %), 5 + 1 cocktail alone / Cmax, Geometric LSM, 5 + 1 cocktail alone / Cmax, Mean (CV %), 5 + 1 cocktail alone: single oral 5+1 cocktail dose day 1, fasted; for increase in AUC0-inf when co-administered with rivoceranib / increase in Cmax when co-administered with rivoceranib: rivoceranib 700 mg
Description: (§1) This example describes a pharmacokinetic interaction study in healthy human volunteers dosed with 700 mg rivoceranib and a mixture of cytochrome P450 enzyme (CYP1A2, CYP2C9, CYP2C19, CYP2D6, and CYP3A) substrates.
(§2) The primary objective of the study was to evaluate the effect of rivoceranib 700 mg once daily (QD) on the pharmacokinetics (PK) of various CYP substrates to determine drug-drug interactions of rivoceranib.
(§3) This was an open-label, 2-treatment, fixed-sequence drug-drug interaction phase 1 study designed to evaluated the impact of multiple oral doses of 700 mg rivoceranib on the single-dose PK of CYP enzyme substrates administered in a 5+1 Cooperstown probe cocktail (caffeine [CYP1A2], S- and R-warfarin [CYP2C9]+vitamin K, omeprazole [CYP2C19], dextromethorphan [CYP2D6], and midazolam [CYP3A]) in healthy volunteers (N=32). On day 1, volunteers received a single dose of the 5+1 cocktail comprising 200 mg caffeine, 10 mg S- and R-warfarin with 10 mg vitamin K, 40 mg omeprazole, 30 mg dextromethorphan, and 2 mg midazolam. Blood samples were collected pre-dose on day 1 and up to 120 hours post-dose for PK analyses of the substrates in the 5+1 cocktail. On days 6 to 15, volunteers received 700 mg rivoceranib once daily for 10 consecutive days with a single dose of the 5+1 cocktail administered on day 11. Blood samples were collected pre-dose on day 11 and up to 120 hours post cocktail dosing (day 16) for PK analyses. Each dosing was under fasted conditions. There was a washout period of 5 days between day 1 dosing and the first rivoceranib dose on day 6; the 2 cocktail dosings were spaced by 10 days.

[2] = molecular target: T1, CYP2C9; assay: Example 1 pharmacokinetic interaction study, rivoceranib 200 mg + Cooperstown 5+1 cocktail: warfarin probe
[3] = molecular target: T2, CYP1A2 (Homo sapiens, UniProt P05177); assay: Example 2 phase 1 drug-drug interaction study, rivoceranib 700 mg QD + 5+1 cocktail: caffeine probe; details: for AUC(0-t) / AUC(0-inf) / Cmax: human, in vivo
T2 sequence (P05177 1-516): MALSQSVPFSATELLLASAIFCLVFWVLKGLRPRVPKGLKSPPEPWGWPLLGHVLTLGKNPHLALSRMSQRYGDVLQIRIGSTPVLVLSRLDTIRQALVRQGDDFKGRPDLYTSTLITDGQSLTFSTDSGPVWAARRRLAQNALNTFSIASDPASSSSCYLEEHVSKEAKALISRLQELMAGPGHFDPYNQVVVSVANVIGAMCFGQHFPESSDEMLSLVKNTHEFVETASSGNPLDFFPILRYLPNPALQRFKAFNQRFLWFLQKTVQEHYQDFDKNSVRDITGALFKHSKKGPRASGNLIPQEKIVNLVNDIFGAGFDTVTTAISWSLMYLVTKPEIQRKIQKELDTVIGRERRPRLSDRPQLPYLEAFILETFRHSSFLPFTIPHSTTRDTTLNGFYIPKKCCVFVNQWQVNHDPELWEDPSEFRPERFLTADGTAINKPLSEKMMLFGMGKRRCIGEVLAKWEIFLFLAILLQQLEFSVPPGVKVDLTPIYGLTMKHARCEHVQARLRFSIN
Description: as §1, §2, §3

[4] = molecular target: T2, CYP1A2; details: in vivo, po
[5] = molecular target: T3, CYP2C19 (Homo sapiens, UniProt P33261); assay: Example 2 phase 1 drug-drug interaction study, rivoceranib 700 mg QD + 5+1 cocktail: omeprazole probe
Description: as §1, §2, §3

[6] = molecular target: T3, CYP2C19; details: in vivo, po
[7] = human, in vivo
Description: as §3

[8] = rivoceranib 200 mg once daily, oral substrate
[9] = oral, probe caffeine, Geometric LSM, Rivoceranib plus 5 + 1 cocktail, healthy volunteers, 5+1 cocktail day 11 + rivoceranib 700 mg QD days 6-15
[10] = oral, probe caffeine, Mean (CV %), Rivoceranib plus 5 + 1 cocktail, healthy volunteers, 5+1 cocktail day 11 + rivoceranib 700 mg QD days 6-15
[11] = po, probe caffeine, Geometric LSM, 5 + 1 cocktail alone, healthy volunteers, single oral 5+1 cocktail dose day 1, fasted
[12] = po, probe caffeine, Mean (CV %), 5 + 1 cocktail alone, healthy volunteers, single oral 5+1 cocktail dose day 1, fasted
[13] = rivoceranib 700 mg QD, 100*LSM Rivoceranib Plus 5+1 Cocktail/LSM 5+1 Cocktail Alone
[14] = po, Geometric LSM, 5 + 1 cocktail alone
[15] = po, Mean (CV %), 5 + 1 cocktail alone

T3 sequence (P33261 whole entry): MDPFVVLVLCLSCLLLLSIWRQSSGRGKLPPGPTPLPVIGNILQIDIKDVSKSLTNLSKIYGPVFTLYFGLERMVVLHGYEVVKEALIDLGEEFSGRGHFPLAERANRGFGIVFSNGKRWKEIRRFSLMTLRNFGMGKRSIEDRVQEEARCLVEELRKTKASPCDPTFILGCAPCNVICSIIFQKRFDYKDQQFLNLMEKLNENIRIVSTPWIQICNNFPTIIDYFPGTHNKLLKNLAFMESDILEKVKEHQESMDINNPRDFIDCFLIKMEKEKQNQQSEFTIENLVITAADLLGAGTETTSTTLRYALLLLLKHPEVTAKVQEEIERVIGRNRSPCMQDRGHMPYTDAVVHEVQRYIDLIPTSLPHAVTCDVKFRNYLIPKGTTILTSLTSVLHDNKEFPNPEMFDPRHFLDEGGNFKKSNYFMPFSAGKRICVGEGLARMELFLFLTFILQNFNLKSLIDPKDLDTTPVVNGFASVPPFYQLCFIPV
T1 sequence (P11712 whole entry): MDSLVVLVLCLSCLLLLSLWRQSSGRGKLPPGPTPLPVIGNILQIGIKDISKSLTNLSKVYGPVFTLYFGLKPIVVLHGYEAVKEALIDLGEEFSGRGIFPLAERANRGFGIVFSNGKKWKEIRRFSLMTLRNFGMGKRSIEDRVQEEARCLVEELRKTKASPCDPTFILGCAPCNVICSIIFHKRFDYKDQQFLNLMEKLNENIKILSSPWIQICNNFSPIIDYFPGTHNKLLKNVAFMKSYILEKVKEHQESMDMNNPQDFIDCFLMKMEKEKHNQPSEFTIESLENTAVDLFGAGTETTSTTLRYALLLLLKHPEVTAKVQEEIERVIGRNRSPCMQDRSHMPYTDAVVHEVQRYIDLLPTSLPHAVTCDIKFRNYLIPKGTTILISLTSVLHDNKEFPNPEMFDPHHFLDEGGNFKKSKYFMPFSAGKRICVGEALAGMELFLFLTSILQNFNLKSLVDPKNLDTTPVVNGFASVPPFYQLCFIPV

## CC(=O)C[C@H](c1ccccc1)c1c(O)c2ccccc2oc1=O [R-warfarin]
[1]
  AUC(0-t), Geometric LSM, Rivoceranib plus 5 + 1 cocktail: 36,090
  AUC(0-t), Mean (CV %), Rivoceranib plus 5 + 1 cocktail: 36,660
  AUC(0-∞), Geometric LSM, Rivoceranib plus 5 + 1 cocktail: 48,560
  AUC(0-∞), Mean (CV %), Rivoceranib plus 5 + 1 cocktail: 49,220
  Cmax, Geometric LSM, Rivoceranib plus 5 + 1 cocktail: 804.9 ng/mL
  Cmax, Mean (CV %), Rivoceranib plus 5 + 1 cocktail: 816.0 ng/mL
  AUC(0-t), Geometric LSM, 5 + 1 cocktail alone: 29,860
  AUC(0-t), Mean (CV %), 5 + 1 cocktail alone: 29,860
  AUC(0-∞), Geometric LSM, 5 + 1 cocktail alone: 36,750
  AUC(0-∞), Mean (CV %), 5 + 1 cocktail alone: 36,750
  Cmax, Geometric LSM, 5 + 1 cocktail alone: 701.2 ng/mL
  Cmax, Mean (CV %), 5 + 1 cocktail alone: 701.2 ng/mL
  increase in AUC0-inf when co-administered with rivoceranib: 32%
  increase in Cmax when co-administered with rivoceranib: 15%
[2]; rivoceranib 200 mg daily, plasma, FIG. 4 and Table 5
  levels on coadministration with rivoceranib: relatively unaffected

## CC(=O)C[C@@H](c1ccccc1)c1c(O)c2ccccc2oc1=O [S-warfarin]
[1]
  AUC(0-t), Geometric LSM, Rivoceranib plus 5 + 1 cocktail: 28,490
  AUC(0-t), Mean (CV %), Rivoceranib plus 5 + 1 cocktail: 28,920
  AUC(0-∞), Geometric LSM, Rivoceranib plus 5 + 1 cocktail: 34,670
  AUC(0-∞), Mean (CV %), Rivoceranib plus 5 + 1 cocktail: 34,780
  Cmax, Geometric LSM, Rivoceranib plus 5 + 1 cocktail: 832.5 ng/mL
  Cmax, Mean (CV %), Rivoceranib plus 5 + 1 cocktail: 840.2 ng/mL
  AUC(0-t), Geometric LSM, 5 + 1 cocktail alone: 18.880
  AUC(0-t), Mean (CV %), 5 + 1 cocktail alone: 18,880
  AUC(0-∞), Geometric LSM, 5 + 1 cocktail alone: 20,640
  AUC(0-∞), Mean (CV %), 5 + 1 cocktail alone: 20,640
  Cmax, Geometric LSM, 5 + 1 cocktail alone: 701.1 ng/mL
  Cmax, Mean (CV %), 5 + 1 cocktail alone: 701.1 ng/mL
  increase in AUC0-inf when co-administered with rivoceranib: 68%
  increase in Cmax when co-administered with rivoceranib: 19%
[2]; [8]
  increase in AUC0-∞ with coadministration with rivoceranib: 28%
  increase in Cmax with coadministration with rivoceranib: 5%

## Cn1c(=O)c2c(ncn2C)n(C)c1=O [caffeine]
[3]; [9]
  AUC(0-t): 43200 ng·h/mL
  AUC(0-inf): 45400 ng·h/mL
  Cmax: 5210 ng/mL
[3]; [10]
  AUC(0-t): 44500 ng·h/mL
  AUC(0-inf): 47600 ng·h/mL
  Cmax: 5330 ng/mL
[3]; po, 200 mg, probe caffeine, Geometric LSM, 5 + 1 cocktail alone, healthy volunteers, single oral 5+1 cocktail dose day 1, fasted
  AUC(0-t): 52600 ng·h/mL
[3]; po, 200 mg, probe caffeine, Mean (CV %), 5 + 1 cocktail alone, healthy volunteers, single oral 5+1 cocktail dose day 1, fasted
  AUC(0-t): 52600 ng·h/mL
[3]; [11]
  AUC(0-inf): 53400 ng·h/mL
  Cmax: 5190 ng/mL
[3]; [12]
  AUC(0-inf): 53400 ng·h/mL
  Cmax: 5190 ng/mL
[3]; rivoceranib 700 mg QD
  change of Cmax with rivoceranib: relatively unchanged; also recorded: did not change
  reduction of AUC0-inf by rivoceranib: 15%
[3]; [13]
  AUC(0-∞), Geometrical mean Ratio, % (90% CI): 84.87%
  Cmax, Geometrical mean Ratio, % (90% CI): 100.41%
[4]
  AUC(0-t), Geometric LS Mean, Cooperstown Cocktail Alone: 10.6274
  AUC(0-∞), Geometric LS Mean, Cooperstown Cocktail Alone: 10.6463
  Cmax, Geometric LS Mean, Cooperstown Cocktail Alone: 8.4984

## COc1ccc2[nH]c([S+]([O-])Cc3ncc(C)c(OC)c3C)nc2c1 (stereo not drawn) [omeprazole]
[5]; rivoceranib 700 mg
  increase in AUC0-inf with rivoceranib: 3.3 fold
  increase in Cmax with rivoceranib: 2 fold
[5]; [13]
  AUC(0-t), Geometrical mean Ratio, % (90% CI): 259.87%
  AUC(0-∞), Geometrical mean Ratio, % (90% CI): 272.50%
  Cmax, Geometrical mean Ratio, % (90% CI): 198.80%
[6]
  AUC(0-t), Geometric LS Mean, Cooperstown Cocktail Alone: 7.3711
  AUC(0-∞), Geometric LS Mean, Cooperstown Cocktail Alone: 7.5365
  Cmax, Geometric LS Mean, Cooperstown Cocktail Alone: 6.3720

## Cn1c(=O)[nH]c2ncn(C)c2c1=O [paraxanthine]
[3]; [14]
  AUC(0-t): 31000 ng·h/mL
  AUC(0-inf): 31700 ng·h/mL
  Cmax: 1440 ng/mL
[3]; [15]
  AUC(0-t): 31000 ng·h/mL
  AUC(0-inf): 28700 ng·h/mL
  Cmax: 1440 ng/mL
[4]
  AUC(0-t), Geometric LS Mean, Cooperstown Cocktail Alone: 10.0780
  AUC(0-∞), Geometric LS Mean, Cooperstown Cocktail Alone: 10.1025
  Cmax, Geometric LS Mean, Cooperstown Cocktail Alone: 7.1157

## N#CC1(c2ccc(NC(=O)c3cccnc3NCc3ccncc3)cc2)CCCC1 [rivoceranib, N-[4-(1-cyanocyclopentyl)phenyl]-2-{[(pyridin-4-yl)methyl]amino}pyridine-3-carboxamide]
[7]
  volunteers who had a TEAE (number): 16
  volunteers who had a TEAE (percent): 53.30%
